Reference: patent publication US10633339B2, “Tricyclic sulfone compound as a ROR gamma modulator” (BRISTOL-MYERS SQUIBB COMPANY, priority 2018, dated 2020)

Assays:
[1] = Glutathione conjugate formation in rat liver cytosol incubations; assay type: in vitro ADME
Experimental: (§1) Assay for Glutathione Conjugate formation in Rat or Human Cytosol Incubations Compound A and Compound 1 were incubated at a concentration of 10 μM with rat or human liver cytosol (3-5 mg/mL) (male Sprague-Dawley rat liver cytosol, lot BIM, n=100 purchased from Bioreclamation IVT, or mixed gender pool, lot 452115, n=150 purchased from Corning) in 1 mL of potassium phosphate buffer (50 mM, pH 8.5). The reactions (n=2, total volume=1000 μL) were initiated by the addition of glutathione (GSH) (5 mM) and incubated at 37° C. in a thermomixer. At 0 and 60 min, aliquots (100 μL) of the reaction mixtures were collected, and reactions were terminated by adding two volumes of acetonitrile. Proteins were then removed using a Millipore Sigma (Massachusetts, BA) Multiscreen Solvinert filter plate, by centrifugation (Eppendorf 5810 R, Hamburg, Germany) at 2000 rpm for 5 min. The filtrate was collected in a 96-well plate and was analyzed by high resolution Velos LTQ-Orbitrap (LC-UV/MS) system. UV absorbance was collected from 220-600 nm. […] The degrees of formation of GSH conjugates from the two compounds is shown below. Entries represent UV peak areas calculated relative to the parent compound at 260-280 nm. Data in parentheses represent the averages of the two experiments.

[2] = Glutathione conjugate formation in human liver cytosol incubations; assay type: in vitro ADME; conditions: 10 μM compound, 5 mM GSH, 37° C., 60 min; UV peak area relative to parent at 260-280 nm; n=2
Experimental: as §1

In the case of `C[C@H]1C[C@H](C(=O)O)CC[C@H]1C(=O)N1CC[C@@]2(S(=O)(=O)c3ccccc3)c3cc(F)c(C(F)(C(F)(F)F)C(F)(F)F)cc3CC[C@@H]12` [Compound 1, (1R,3S,4R)-4-((3aR,9bR)-8-fluoro-7-(perfluoropropan-2-yl)-9b-(phenylsulfonyl)-2,3,3a,4,5,9b-hexahydro-1H-benzo[e]indole-3-carbonyl)-3-methylcyclohexane-1-carboxylic acid], the “GSH conjugate, Rat Cytosol UV Area (%), individual experiments” value ([1]; 10 μM compound, 5 mM GSH, 37° C., 60 min, UV peak area relative to parent at 260-280 nm, n=2) is reported as “not detected”, the “GSH adduct formation (statement in words)” value ([1]; based on in vitro experiments (rat or human cytosol, not given)) is reported as “did not form a GSH adduct” and the “GSH conjugate, Human Cytosol UV Area (%), individual experiments” value [2] is reported as “not detected”.
